Laboratory results reported in patent US20240269293A1, “PROTEIN-MACROMOLECULE CONJUGATES AND METHODS OF USE THEREOF” (BEIJING XUANYI PHARMASCIENCES CO., LTD., priority 2021, published 2024).
Where two headings read alike, the source gives them in different places.

Columns and labels:
CD8+ T cells = assay: pSTAT5 signaling in human LRS-derived PBMC, CD8+ T cells (flow cytometry); type: cell-based; settings: for pSTAT5 EC50, CD8+ T cells: 45 minute incubation
Method: (§2) To determine how test compounds affect activation of primary immune cell subpopulations, concentration-response profiling of lymphocyte activation in human LRS-derived peripheral blood mononuclear cell (PBMC) samples were performed using multi-color flow cytometry.
(§3) An LRS was acquired day of draw and PBMC was extracted using a ficoll density gradient protocol. PBMC was resuspended in RPMI supplemented with 10% Fetal Bovine Serum and 1% Pen-Strep Glutamine. PBMC was incubated at 37° C. for 30 minutes prior to stimulation.
(§4) A 12-point dose curve with 5-fold dilutions was created for all compounds. Top dose was 30 ug mL. Dose curves were diluted in PBS w/0.1% BSA and added as 10× stocks. After a 45 minute incubation, samples were fixed and stained with antibodies to detect the phosphorylated form of the transcription factor STAT5 (pTATA5), and a panel of surface markers to follow pSTAT5 formation in specific T Cell and natural killer (NK) cell subpopulation.
(§5) Samples were stained with the following pre-perm panel: CD3, CD25, CD8, CD56, CD16, CD4, Dump (CD14), Dump (CD19), and CD127. Stains were incubated for 30 minutes then washed out. Streptavidin BV421 (Biolegend cat #405225) was then added and incubated for 20 minutes. Streptavidin was washed out and samples were MeOH permed and stained with the following post-perm panel: FOXP3. STAT5, Dump (CD15). Stains were incubated for 60 minutes then washed out and analyzed by flow cytometry.
(§6) Flow cytometry data were analyzed for activation of different T and NK cell subsets in concentration-response mode, reading pSTAT5 accumulation after treatment with test compounds. The median fluorescence intensity for pSTAT5 was used to create the dose curves. EC50 values for NK cells, Treg cells, CD8+ T cells were calculated from the concentration-response curves.

CTLL-2 cells = assay: CTLL-2 cell proliferation assay; type: cell-based, mouse
Method: CTLL-2 cells (mouse cytotoxic T lymphocyte cell line) were maintained in complete RPMI 1640 medium supplemented with 10% fetal bovine serum, and 10% IL-2 culture supplement (T-STIM™ with ConA (concanavalin-A)) at 37° C. under a 5% CO2 atmosphere. The cells were cultured in suspension until they reach a cell density of 2-3×10^5 cells/ml before splitting.
For the activity assay, 3-4 days after the last split, the cells were washed three times in Dulbecco's phosphate buffered saline. The cells were then re-suspended in supplemented media without T-STIM™ at a cell density of ˜5×10^5 cells/mL, and plated in 96-well white walled clear bottom microplates at 90 μl/well. Experiments were also conducted using supplemented media (without T-STIM™) adjusted to pH 6.7-7, in order to minimize the release of conjugates during the course of incubation. Then, 10 μl of 10× concentrations of test compound, diluted in supplemented media without T-STIM™, was added. The cells were incubated at 37° C. in a 5% CO2 atmosphere for 48 hours.
The activity of both released IL-2 and unreleased conjugates were tested. The test compounds were stored under acidic condition (10 mM, sodium acetate buffer, pH 4) to stabilize conjugation. To test the activity of conjugates, the sample was diluted from the storage buffer into supplemented media ˜ one hour prior to the assay. […]

NK cells = assay: pSTAT5 signaling in human LRS-derived PBMC, NK cells (flow cytometry); type: cell-based; settings: 45 minute incubation
Method: as §2, §3, §4, §5, §6

[1] = system: MC38 murine colon carcinoma; assay: Subcutaneous MC38 murine colon carcinoma syngeneic model; type: in vivo, C57BL/6 mouse; settings: 2 mg/kg IP b.i.d. × 5, 2 cycles
Method: 1×10^6 MC38 cells in 0.1 ml of PBS were implanted subcutaneously for each 7-10 weeks old syngeneic female C57BL/6 mouse in the right front flank region. Tumors were allowed to grow to palpable size, i.e., 80-100 cu mm before randomization and assigning groups (n=3) as designed. The mice were administered test compounds i.e., IL-2, rIL-2-polymer conjugates of vehicle at different dose concentrations and dose regimes as indicated in Table 12. The body weights and tumor volumes were measured three times per week.
(§1) Tumor growth inhibition following the administration of rIL-2 and rIL-2-polymer conjugates at different administration schemes were provided in FIG. 8. The tumor growth inhibition (TGI) for different treatment groups, complete response (CR) rate, and toxicity were shown in Table 13. Tumor Growth Inhibition; TGI %=(1−ΔT/ΔC)×100; Ti and Ci as the mean tumor volumes of the treatment and vehicle groups on the measurement day; T0 and C0 as the mean tumor volumes of the treatment and vehicle groups on Day 0.

[2] = system: CT26 murine colon carcinoma; type: in vivo
Method: 5×10^5 CT26 cells in 0.1 ml of PBS were implanted subcutaneously for each 7-10 weeks old syngeneic female BALB/c mouse in the right front flank region. Tumors were allowed to grow to palpable size, i.e., 80-110 cu mm before randomization and assigning groups (n=8) as designed. The mice were administered test compounds i.e., rIL-2, rIL-2-polymer conjugates of vehicle at different dose concentrations and dose regimes as indicated in Tables 6-8. The body weights and tumor volumes were measured three times per week. Mice that have been tumor free for more than 30 days were re-challenged in the left front flank with CT26 tumor cells (5×10^5) in 0.1 mal of PBS.
as §1, with “FIGS. 5A-7B.” for “FIG. 8.”, “rate, toxicity” for “rate,”, “rechallenge results” for “toxicity”, “Tables 9-11.” for “Table 13.”

Treg cells = assay: pSTAT5 signaling in human LRS-derived PBMC, Treg cells (flow cytometry); type: cell-based; settings: 45 minute incubation
Method: as §2, §3, §4, §5, §6

[3] = system: metastatic melanoma and renal cell carcinoma; settings: high-dose regimen administered every eight hours; cited from earlier work
[4] = Table 9, 2 mg/kg IP b.i.d. × 5, 2 cycles
[5] = Table 11, 2 mg/kg IP b.i.d. × 5, 2 cycles

## Example 24: recombinant IL-2 of SEQ ID NO:1 expressed in E. coli, used as control
CD8+ T cells; Run 1
  CD8/Treg ratio (pSTAT5 EC50): 928
  pSTAT5 EC50, CD8+ T cells: 37.10 ng/mL
CD8+ T cells; Run 2
  CD8/Treg ratio (pSTAT5 EC50): 302
  pSTAT5 EC50, CD8+ T cells: 78.50 ng/mL
CD8+ T cells; Run 3
  CD8/Treg ratio (pSTAT5 EC50): 1874
  pSTAT5 EC50, CD8+ T cells: 37.48 ng/mL
CTLL-2 cells; Table 3A, 48 hour incubation, CCK8
  EC50: 1.03 pM
CTLL-2 cells; Table 3B, unreleased conjugate (rIL-2 control as such)
  EC50, CTLL-2 cell proliferation: 0.78 ng/mL
NK cells; Run 1
  pSTAT5 EC50, NK cells: 9.34 ng/mL
NK cells; Run 2
  pSTAT5 EC50, NK cells: 22.02 ng/mL
NK cells; Run 3
  pSTAT5 EC50, NK cells: 4.01 ng/mL
[1]; Table 13 (FIG. 8)
  TGI (day 15): 100.75%
[1]; Table 13
  CR (day 38) (tumor free mice/mice treated): 1/8
[2]; Table 9 (FIGS. 5A-5B), 2 mg/kg IP b.i.d. × 5, 2 cycles
  TGI (day 19): 61.76%
[2]; [4]
  CR (tumor free mice/mice treated): 1/8
  Re-challenge (final tumor free mice/re-challenged mice): 1/1
[2]; Table 10 (FIGS. 6A-6B), 3 mg/kg (first cycle) IP, 2 mg/kg (second cycle) IV, b.i.d. × 5, 2 cycles
  TGI (day 3): 95.71% (day 3)
[2]; Table 10, 3, 2 mg/kg b.i.d. × 5, 2 cycles
  CR (tumor free mice/mice treated): 0/8
[2]; Table 11 (FIGS. 7A-7B), 2 mg/kg IP b.i.d. × 5, 2 cycles
  TGI (day 17): 102.41%
[2]; [5]
  CR (tumor free mice/mice treated): 1/8
  Re-challenge (final tumor free mice/re-challenged mice): 1/1
Treg cells; Run 1
  pSTAT5 EC50, Treg cells: 0.04 ng/mL
Treg cells; Run 2
  pSTAT5 EC50, Treg cells: 0.26 ng/mL
Treg cells; Run 3
  pSTAT5 EC50, Treg cells: 0.02 ng/mL

## aldesleukin
[3]
  Durable responses: up to 25%
